Experimental data from patent US11285135B2 (AMGEN INC., priority 2016, dated 2022).

Molecular target: GDP-bound protein (aa 1-169), containing both G12C and C118A amino acid substitutions (Homo sapiens, UniProt P01116, C118A/G12C)
Experiment: Coupled Nucleotide Exchange Assay (SOS-mediated nucleotide exchange, AlphaScreen)
Format: biochemical
Settings: 2 hours compound pre-incubation
Method: Coupled Nucleotide Exchange Assay: Purified GDP-bound […] protein (aa 1-169), containing both G12C and C118A amino acid substitutions and an N-terminal His-tag, was pre-incubated with a compound dose-response titration for 2 hours in assay buffer (25 mM HEPES pH 7.4, 10 mM MgCl2, and 0.01% Triton X-100). Following compound pre-incubation, purified SOS protein (aa 564-1049) and GTP (Roche 10106399001) were added to the assay wells and incubated for an additional hour. […] The assay plates were then read on a PerkinElmer EnVision Multilabel Reader, using AlphaScreen® technology, and data were analyzed using a 4-parameter logistic model to calculate IC50 values.

Chain of GDP-bound protein (aa 1-169), containing both G12C and C118A amino acid substitutions (P01116 1-169 isoform P01116-2 G12C/C118A): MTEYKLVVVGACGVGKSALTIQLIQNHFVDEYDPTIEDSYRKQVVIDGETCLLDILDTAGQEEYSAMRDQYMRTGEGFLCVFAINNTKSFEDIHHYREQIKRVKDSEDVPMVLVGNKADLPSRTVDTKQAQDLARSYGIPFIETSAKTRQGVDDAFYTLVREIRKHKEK

Row | SMILES | Coupled exchange IC50 [µM]
1 | C=CC(=O)N1CCN(c2snc3c(F)c(-c4cnccc4C(C)C)c(Cl)cc23)CC1 [Example 3-21, 1-(4-(5-chloro-7-fluoro-6-(4-(2-propanyl)-3-pyridinyl)-2,1-benzothiazol-3-yl)-1-piperazinyl)-2-propen-1-one] | 32.0
2 | C=CC(=O)NC1(CO)CN(c2snc3c(F)c(-c4cc(O)cc5ccccc45)c(Cl)cc23)C1 [Example 5-3, N-(1-(5-chloro-7-fluoro-6-(3-hydroxy-1-naphthalenyl)-2,1-benzothiazol-3-yl)-3-(hydroxymethyl)-3-azetidinyl)-2-propenamide] | 14.2
3 | C=CC(=O)N1CCN(c2snc3c(F)c(-c4nc(NC)cc5ccccc45)c(Cl)cc23)CC1 [Example 24, 1-(4-(5-Chloro-7-fluoro-6-(3-(methylamino)-1-isoquinolinyl)-2,1-benzothiazol-3-yl)-1-piperazinyl)-2-propen-1-one] | 6.20
4 | C=CC(=O)N1CCN(c2nnc(C3CCCC3)c3cc(-c4c(O)cccc4F)c(Cl)cc23)CC1 [Example 14, 1-(4-(7-Chloro-4-cyclopentyl-6-(2-fluoro-6-hydroxyphenyl)-1-phthalazinyl)-1-piperazinyl)-2-propen-1-one] | 2.69
5 | C=C(CO)C(=O)N1CCN(c2snc3c(F)c(-c4cc(OC)cc5ccccc45)c(Cl)cc23)CC1 [Example 18-1, 1-(4-(5-chloro-7-fluoro-6-(3-methoxy-1-naphthalenyl)-2,1-benzothiazol-3-yl)-1-piperazinyl)-2-(hydroxymethyl)-2-propen-1-one] | 23.0
6 | C=CC(=O)N1CCN(c2snc3c(F)c(-c4cc(O)cc5cn(C)nc45)c(Cl)cc23)CC1 [Example 19-3, 1-(4-(5-chloro-7-fluoro-6-(5-hydroxy-2-methyl-2H-indazol-7-yl)-2,1-benzothiazol-3-yl)-1-piperazinyl)-2-propen-1-one] | 115
7 | C=CC(=O)N1CCN(c2snc3c(F)c(-c4ncccc4Cl)c(Cl)cc23)CC1 [Example 6-2, 1-(4-(5-chloro-6-(3-chloro-2-pyridinyl)-7-fluoro-2,1-benzothiazol-3-yl)-1-piperazinyl)-2-propen-1-one] | 5.31
8 | C=CC(=O)N1CCN(c2snc3nc(-c4c(F)cccc4OC)c(Cl)cc23)C(C)C1 (racemic) [Example 2-2, 1-(4-(5-chloro-6-(2-fluoro-6-methoxyphenyl)[1,2]thiazolo[3,4-b]pyridin-3-yl)-3-methyl-1-piperazinyl)-2-propen-1-one] | 12.7
9 | C=CC(=O)N1CCN(c2snc3c(F)c(-c4cc(O)cc5ncccc45)c(Cl)cc23)CC1 [Example 21, 1-(4-(5-chloro-7-fluoro-6-(7-hydroxy-5-quinolinyl)-2,1-benzothiazol-3-yl)-1-piperazinyl)-2-propen-1-one] | 9.41
10 | C=CC(=O)N1CCN(c2nnc(Cl)c3cc(-c4c(O)cccc4F)c(Cl)cc23)CC1 [Example 10-13, 1-(4-(4,7-dichloro-6-(2-fluoro-6-hydroxyphenyl)-1-phthalazinyl)-1-piperazinyl)-2-propen-1-one] | 15.1
11 | C=CC(=O)N1CCN(c2nnc(N3CCCCC3)c3cc(-c4c(O)cccc4F)c(Cl)cc23)CC1 [Example 15, 1-(4-(7-Chloro-6-(2-fluoro-6-hydroxyphenyl)-4-(1-piperidinyl)-1-phthalazinyl)-1-piperazinyl)-2-propen-1-one] | 2.56
12 | C=CC(=O)N1CCN(c2nnc(-c3ccccc3)c3cc(Cl)c(-c4c(O)cccc4F)cc23)CC1 [Example 31, 2-(4-(4-acryloyl-1-piperazinyl)-7-chloro-1-phenyl-6-phthalazinyl)-3-fluorophenol] | 123
13 | C=CC(=O)N1CCN(c2nnc(-c3ccccc3C)c3cc(-c4c(O)cccc4F)c(Cl)cc23)CC1 [Example 10-1, 1-(4-(7-Chloro-6-(2-fluoro-6-hydroxyphenyl)-4-(2-methylphenyl)-1-phthalazinyl)-1-piperazinyl)-2-propen-1-one] | 24.5
14 | C=CC(=O)N1CCN(c2snc3cc(-c4c(F)cccc4OC)c(Cl)cc23)CC1 [Example 1-5, 1-(4-(5-chloro-6-(2-fluoro-6-methoxyphenyl)-2,1-benzothiazol-3-yl)-1-piperazinyl)-2-propen-1-one] | 6.66
15 | C=CC(=O)NC1CN(c2snc3c(F)c(-c4cc(OC)cc5ccccc45)c(Cl)cc23)C1 [Example 4-5, N-(1-(5-chloro-7-fluoro-6-(3-methoxy-1-naphthalenyl)-2,1-benzothiazol-3-yl)-3-azetidinyl)-2-propenamide] | >250
16 | C=CC(=O)N[C@@H]1CCN(c2snc3c(F)c(-c4cc(O)cc5ccccc45)c(Cl)cc23)C1 [Example 1-22, N-((3R)-1-(5-chloro-7-fluoro-6-(3-hydroxy-1-naphthalenyl)-2,1-benzothiazol-3-yl)-3-pyrrolidinyl)-2-propenamide] | >250
17 | C=CC(=O)N1CCN(c2snc3c(F)c(-c4cc(N)ccc4F)c(Cl)cc23)CC1 [Example 3-14, 1-(4-(6-(5-amino-2-fluorophenyl)-5-chloro-7-fluoro-2,1-benzothiazol-3-yl)-1-piperazinyl)-2-propen-1-one] | 5.64
18 | C=CC(=O)N1CC2(C1)CN(c1snc3c(F)c(-c4cc(OC)cc5ccccc45)c(Cl)cc13)C2 [Example 4-3, 1-(6-(5-chloro-7-fluoro-6-(3-methoxy-1-naphthalenyl)-2,1-benzothiazol-3-yl)-2,6-diazaspiro[3,3]heptan-2-yl)-2-propen-1-one] | >250
19 | C=CC(=O)N1CCN(c2snc3c(F)c(-c4cc(N)cc(C#N)c4)c(Cl)cc23)CC1 [Example 3-25, 3-amino-5-(5-chloro-7-fluoro-3-(4-(2-propenoyl)-1-piperazmyl)-2,1-benzothiazol-6-yl)benzonitrile] | >250
20 | C=CC(=O)N1CCN(c2snc3c(F)c(-c4cc(O)ccc4F)c(Cl)cc23)CC1 [Example 1-28, 1-(4-(5-chloro-7-fluoro-6-(2-fluoro-5-hydroxyphenyl)benzo[c]isothiazol-3-yl)piperazin-1-yl)prop-2-en-1-one] | 2.20
21 | C=CC(=O)N1CCC[C@@H](Nc2snc3c(F)c(Br)c(Cl)cc23)C1 [Example 4-8, 1-((3R)-3-((6-bromo-5-chloro-7-fluoro-2,1-benzothiazol-3-yl)amino)-1-piperidinyl)-2-propen-1-one] | 177
22 | C=CC(=O)N1CC(Nc2snc3c(F)c(Br)c(Cl)cc23)C1 [Example 4-7, 1-(3-((6-bromo-5-chloro-7-fluoro-2,1-benzothiazol-3-yl)amino)-1-azetidinyl)-2-propen-1-one] | 125
23 | C=CC(=O)N1CCN(c2snc3c(F)c(-c4c(OC)ccc5ccccc45)c(Cl)cc23)CC1 [Example 1-13, 1-(4-(5-chloro-7-fluoro-6-(2-methoxy-1-naphthalenyl)-2,1-benzothiazol-3-yl)-1-piperazinyl)-2-propen-1-one] | >10
24 | C=CC(=O)N1CCN(c2snc3c(F)c(-c4ccc(F)cc4F)c(Cl)cc23)CC1 [Example 3-7, 1-(4-(5-chloro-6-(2,4-difluorophenyl)-7-fluoro-2,1-benzothiazol-3-yl)-1-piperazinyl)-2-propen-1-one] | 6.98
25 | C=CC(=O)N1CCC[C@@H](Nc2snc3c(F)c(-c4cc(O)cc5ccccc45)c(Cl)cc23)C1 [Example 4-9, 1-((3R)-3-((5-chloro-7-fluoro-6-(3-hydroxynaphthalen-1-yl)benzo[c]isothiazol-3-yl)amino)piperidin-1-yl)prop-2-en-1-one] | >250

Test system: Phosphorylation of ERK½ in MIA PaCa-2 cells
Experiment: Phospho-ERK½ MSD Assay in MIA PaCa-2 cells
Format: cell-based
Settings: Homo sapiens, MIA PaCa-2, MIA PaCa-2 cells; 4 hours compound treatment; 10 ng/mL EGF for 10 min; read-out: p-ERK IC50 (MIA PaCa-2)
Method: (§1) Phospho-ERK½ MSD Assay: MIA PaCa-2 (ATCC® CRL-1420™) and A549 (ATCC® CCL-185™) cells were cultured in RPMI 1640 Medium (ThermoFisher Scientific 11875093) containing 10% fetal bovine serum (ThermoFisher Scientific 16000044) and 1× penicillin-streptomycin-glutamine (ThermoFisher Scientific 10378016). Sixteen hours prior to compound treatment, MIA PaCa-2 or A549 cells were seeded in 96-well cell culture plates at a density of 25,000 cells/well and incubated at 37° C., 5% CO2. A compound dose-response titration was diluted in growth media, added to appropriate wells of a cell culture plate, and then incubated at 37° C., 5% CO2 for 4 hours. Following compound treatment, cells were stimulated with 10 ng/mL EGF (Roche 11376454001) for 10 min, washed with ice-cold Dulbecco's phosphate-buffered saline, no Ca^2+ or Mg^2+ (ThermoFisher Scientific 14190144), and then lysed in RIPA buffer (50 mM Tris-HCl pH 7.5, 1% Igepal, 0.5% sodium deoxycholate, 150 mM NaCl, and 0.5% sodium dodecyl sulfate) containing protease inhibitors (Roche 4693132001) and phosphatase inhibitors (Roche 4906837001). Cell lysates were stored frozen at −80° C. overnight. Phosphorylation of ERK½ in compound-treated lysates was assayed using Phospho-ERK½ Whole Cell Lysate kits (Meso Scale Discovery K151DWD) according to the manufacturer's protocol. Assay plates were read on a Meso Scale Discovery Sector Imager 6000, and data were analyzed using a 4-parameter logistic model to calculate IC50 values.

Row | SMILES | IC50 [µM]
26 | C=CC(=O)N1CCN(c2nc(=O)n(-c3ccccc3C(C)C)c3nc(-c4c(O)cccc4F)c(Cl)cc23)CC1 [Example 8-2, 6-chloro-7-(2-fluoro-6-hydroxyphenyl)-1-(2-(2-propanyl)phenyl)-4-(4-(2-propenoyl)-1-piperazinyl)pyrido[2,3-d]pyrimidin-2(1H)-one] | 0.05
27 | C=CC(=O)N1CCN(c2snc3cc(-c4cc(O)cc5ccccc45)c(Cl)cc23)CC1 [Example 1-3] | 3.84

Test system: Phosphorylation of ERK½ in A549 cells
Experiment: Phospho-ERK½ MSD Assay in A549 cells
Format: cell-based
Settings: Homo sapiens, A549, A549 cells; 4 hours compound treatment; 10 ng/mL EGF for 10 min; read-out: p-ERK IC50 (A549)
Method: as §1

Row | SMILES | IC50 [µM]
28 | C=CC(=O)N1CCN(c2nc(=O)n(-c3ccccc3C(C)C)c3nc(-c4c(O)cccc4F)c(Cl)cc23)CC1 [Example 8-2, 6-chloro-7-(2-fluoro-6-hydroxyphenyl)-1-(2-(2-propanyl)phenyl)-4-(4-(2-propenoyl)-1-piperazinyl)pyrido[2,3-d]pyrimidin-2(1H)-one] | > 100
29 | C=CC(=O)N1CCN(c2snc3cc(-c4cc(O)cc5ccccc45)c(Cl)cc23)CC1 [Example 1-3] | > 100
30 | C=CC(=O)N1CCN(c2snc3c(F)c(-c4cc(O)ccc4F)c(Cl)cc23)CC1 [Example 1-28, 1-(4-(5-chloro-7-fluoro-6-(2-fluoro-5-hydroxyphenyl)benzo[c]isothiazol-3-yl)piperazin-1-yl)prop-2-en-1-one] | > 100
